Values quoted from earlier work in paper PMC6971042, “Exploring ion-ion preferences through structure-property correlations: amino acid-derived, bis(guanidinium) disiloxane salts” (Scientific Reports, 2020).

Set-up: method as in PMID 26714187
Conditions: qualitative

C[Si](C)(CCCNC(=N)N)O[Si](C)(C)CCCNC(=N)N [GUA, 1,3-bis(3-guanidinopropyl)-tetramethyldisiloxane dichloride]
water solubility: fully water-miscible

C[Si](C)(CCCNC(=N)N)O[Si](C)(C)CCCNC(=N)N.O=[N+]([O-])O [1,3-bis(3-guanidinopropyl)-tetramethyldisiloxane nitrate]
water solubility: abnormally low
